This is an account of results in ChEMBL document CHEMBL1201862, “PubChem BioAssay data set” (2004).

Experiment [1] deals with T1, Scavenger receptor class B member 1 (Mus musculus, UniProt Q61009).
T1 sequence (Q61009 whole entry): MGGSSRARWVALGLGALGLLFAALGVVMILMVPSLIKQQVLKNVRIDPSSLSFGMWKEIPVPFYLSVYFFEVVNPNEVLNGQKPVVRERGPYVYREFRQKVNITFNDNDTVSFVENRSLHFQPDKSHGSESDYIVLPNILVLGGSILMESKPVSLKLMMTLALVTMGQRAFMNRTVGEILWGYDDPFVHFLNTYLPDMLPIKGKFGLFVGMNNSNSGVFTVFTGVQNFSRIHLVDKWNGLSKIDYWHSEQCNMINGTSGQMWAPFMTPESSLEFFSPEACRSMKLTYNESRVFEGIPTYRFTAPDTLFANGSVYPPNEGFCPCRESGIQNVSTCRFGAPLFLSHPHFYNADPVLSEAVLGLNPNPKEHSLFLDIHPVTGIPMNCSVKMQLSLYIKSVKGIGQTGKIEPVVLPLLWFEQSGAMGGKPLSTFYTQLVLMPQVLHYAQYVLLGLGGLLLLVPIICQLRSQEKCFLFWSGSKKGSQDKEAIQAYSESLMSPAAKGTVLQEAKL
Briefly: inhibitors of SR-BI mediated HDL lipid uptake, dose response, ldlA[mSR-BI] cells, fluorescence, cherry pick (AID 493194).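 Also: cellular uptake of fluorescent DiI-labeled HDL measured as cell fluorescence.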 In kind it is functional, cell-based.

A further experiment has as its target T2, X-box-binding protein 1 (Homo sapiens, UniProt P17861).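 Also: confirmatory dose-response counter-screen serving a CHOP assay.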
T2 sequence (P17861 whole entry): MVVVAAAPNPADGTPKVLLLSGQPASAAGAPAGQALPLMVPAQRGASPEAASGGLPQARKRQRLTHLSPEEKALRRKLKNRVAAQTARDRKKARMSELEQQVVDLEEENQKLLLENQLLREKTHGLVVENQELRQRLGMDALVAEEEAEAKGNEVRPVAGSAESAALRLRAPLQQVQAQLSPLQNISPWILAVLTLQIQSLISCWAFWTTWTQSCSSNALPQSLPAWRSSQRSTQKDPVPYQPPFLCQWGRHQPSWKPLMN
In kind it is functional, Cricetulus griseus.

Experiment [2] concerns the target T3, Corticotropin-releasing factor receptor 2/Corticotropin-releasing factor-binding protein (Homo sapiens, UniProt P24387+Q13324).
T3 sequence (Q13324 whole entry): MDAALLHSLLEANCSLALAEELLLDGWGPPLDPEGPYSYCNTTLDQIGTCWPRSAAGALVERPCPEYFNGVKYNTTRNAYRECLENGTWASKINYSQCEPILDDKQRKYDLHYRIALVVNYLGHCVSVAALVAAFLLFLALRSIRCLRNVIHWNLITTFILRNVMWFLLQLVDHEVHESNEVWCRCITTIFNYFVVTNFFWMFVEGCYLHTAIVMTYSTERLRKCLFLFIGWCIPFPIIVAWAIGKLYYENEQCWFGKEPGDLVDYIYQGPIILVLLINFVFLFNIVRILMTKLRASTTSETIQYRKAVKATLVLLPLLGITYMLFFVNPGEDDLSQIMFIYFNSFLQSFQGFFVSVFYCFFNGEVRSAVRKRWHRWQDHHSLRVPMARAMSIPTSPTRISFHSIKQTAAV
T3 sequence (P24387 whole entry): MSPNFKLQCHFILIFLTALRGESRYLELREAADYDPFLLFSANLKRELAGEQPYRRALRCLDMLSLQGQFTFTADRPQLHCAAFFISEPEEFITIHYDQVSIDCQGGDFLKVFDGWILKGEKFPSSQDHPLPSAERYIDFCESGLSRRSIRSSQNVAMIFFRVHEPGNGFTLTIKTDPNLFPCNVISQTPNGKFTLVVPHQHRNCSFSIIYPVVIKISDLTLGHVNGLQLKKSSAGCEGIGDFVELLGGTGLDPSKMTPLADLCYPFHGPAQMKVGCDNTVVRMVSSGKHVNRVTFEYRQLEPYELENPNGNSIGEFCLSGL
Briefly: activators of CRF receptor 2 with binding protein – uHTS hits, confirmation (AID 602473). In kind it is functional. The settings on record: read-out: EC50_Mean.

Experiment [3] addresses T4, Aryl hydrocarbon receptor (Homo sapiens, UniProt P35869).
T4 sequence (P35869 whole entry): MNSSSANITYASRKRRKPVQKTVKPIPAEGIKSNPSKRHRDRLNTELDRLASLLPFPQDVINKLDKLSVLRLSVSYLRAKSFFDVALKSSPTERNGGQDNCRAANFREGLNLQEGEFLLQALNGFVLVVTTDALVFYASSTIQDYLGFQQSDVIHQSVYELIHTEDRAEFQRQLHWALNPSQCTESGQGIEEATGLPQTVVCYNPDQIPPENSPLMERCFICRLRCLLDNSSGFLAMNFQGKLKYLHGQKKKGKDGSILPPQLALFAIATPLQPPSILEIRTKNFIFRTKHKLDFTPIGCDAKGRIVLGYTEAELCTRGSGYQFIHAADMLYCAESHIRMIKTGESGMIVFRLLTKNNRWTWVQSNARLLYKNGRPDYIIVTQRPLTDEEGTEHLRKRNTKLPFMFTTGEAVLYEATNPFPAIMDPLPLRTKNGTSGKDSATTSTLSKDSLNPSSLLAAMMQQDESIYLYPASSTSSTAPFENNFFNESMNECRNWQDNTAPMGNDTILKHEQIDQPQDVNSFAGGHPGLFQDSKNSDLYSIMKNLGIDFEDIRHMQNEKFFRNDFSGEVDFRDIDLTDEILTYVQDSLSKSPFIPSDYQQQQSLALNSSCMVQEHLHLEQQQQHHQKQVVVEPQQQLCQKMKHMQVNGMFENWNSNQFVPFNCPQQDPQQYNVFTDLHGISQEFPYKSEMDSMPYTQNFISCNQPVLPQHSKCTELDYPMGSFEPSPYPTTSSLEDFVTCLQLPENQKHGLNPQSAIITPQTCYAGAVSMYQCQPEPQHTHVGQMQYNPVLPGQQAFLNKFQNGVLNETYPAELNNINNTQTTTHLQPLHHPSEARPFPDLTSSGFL
Kind of experiment: Luminescence-based cell-based high throughput dose response assay for activators of the Aryl Hydrocarbon Receptor (AHR). [Related pubchem assays: 2796 (Primary screen (AHR activators in singlicate)), 2845 (Confirmation screen (AHR activators in triplicate)), 434939 (Counterscreen (PXR activators in triplicate)), 2804 (Summary (AHR activators))]. The class given is ADME.

Experiment [4] in a line: inhibitors of intracellular T. cruzi replication, confirmation, NIH3T3 host cells, beta-gal luminescence (AID 2044).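 Also: intracellular parasites grown in NIH/3T3 mouse fibroblasts as host cells; luminescent beta-galactosidase reporter signal from transgenic T. cruzi replicating inside host cells; inhibitors lower the luminescence signal.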 The class given is functional, cell-based.
The nature of experiment [5]: cytotoxicity toward NIH3T3 fibroblasts, dose response, counter-screen, cell-based, ATP luminescence, mouse fibroblasts (AID 2010).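 Also: cells exposed to compound for about 90 hours before reading.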 The class given is functional. (In general: Counterscreens check selectivity or assay interference.)
The test system of the next experiment is INS1. Briefly: beta cell apoptosis inhibitors, cytokine rescue, dose response, luminescence, retest (AID 449756).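 Also: cell death triggered by IL-1 beta plus TNF-alpha plus IFN-gamma mixture; protective hits raise ATP signal compared with cytokine alone wells.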 In kind it is functional, cell-based. Conditions: Rattus norvegicus.
The target of experiment [6] is T5, Heat shock factor protein 1 (Mus musculus, UniProt P38532).
T5 sequence (P38532 whole entry): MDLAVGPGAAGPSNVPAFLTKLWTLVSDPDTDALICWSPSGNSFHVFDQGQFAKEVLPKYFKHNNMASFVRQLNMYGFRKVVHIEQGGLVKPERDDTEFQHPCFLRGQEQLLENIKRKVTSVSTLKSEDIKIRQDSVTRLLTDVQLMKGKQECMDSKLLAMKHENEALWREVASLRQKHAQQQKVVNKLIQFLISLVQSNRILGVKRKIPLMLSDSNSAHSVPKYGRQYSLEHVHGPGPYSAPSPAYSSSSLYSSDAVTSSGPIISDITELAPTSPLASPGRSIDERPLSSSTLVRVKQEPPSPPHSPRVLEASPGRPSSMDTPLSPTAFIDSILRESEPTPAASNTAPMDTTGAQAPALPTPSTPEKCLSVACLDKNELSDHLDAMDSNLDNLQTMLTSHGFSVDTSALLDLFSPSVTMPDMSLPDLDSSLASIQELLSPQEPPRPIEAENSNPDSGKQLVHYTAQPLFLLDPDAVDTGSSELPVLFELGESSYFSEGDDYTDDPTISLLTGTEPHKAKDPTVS
Kind of experiment: inhibition of MG132-induced HSE-luciferase signal, confirmation, cell-based, NIH3T3, luminescence, dose retest (AID 2382).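 Also: NIH3T3 fibroblasts with HSF1-driven luciferase reporter stressed by proteasome inhibitor MG132; luminescence from HSF1-driven luciferase expression after 8 hours of MG132 stress.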 In kind it is functional.

A further experiment deals with T6, Bcl-2-like protein 10 (Homo sapiens, UniProt Q9HD36).
T6 sequence (Q9HD36 whole entry): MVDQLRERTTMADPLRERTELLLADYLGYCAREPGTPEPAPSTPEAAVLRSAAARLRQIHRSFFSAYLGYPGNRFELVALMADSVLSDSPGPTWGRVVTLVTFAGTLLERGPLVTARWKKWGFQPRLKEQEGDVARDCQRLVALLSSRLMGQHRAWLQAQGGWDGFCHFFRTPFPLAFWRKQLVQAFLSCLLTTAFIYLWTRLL
Kind of experiment: displacers of TR3 peptide from Bcl-B, primary screen, selectivity assay for Bfl-1 inhibitor project, biochemical, fluorescence polarization, FITC-TR3 peptide (AID 748). (In general: Fluorescence polarisation rises when a labelled molecule tumbles more slowly, as on binding a larger partner.)

The nature of experiment [7]: A Cell Based Secondary Assay To Explore Cytotoxicity of Compounds that Sensitize Mycobacterium Tuberculosis to Beta-Lactam Antibiotics. In kind it is functional.
A further experiment deals with T7, Cytochrome P450 1A2 (Homo sapiens, UniProt P05177).
T7 sequence (P05177 whole entry): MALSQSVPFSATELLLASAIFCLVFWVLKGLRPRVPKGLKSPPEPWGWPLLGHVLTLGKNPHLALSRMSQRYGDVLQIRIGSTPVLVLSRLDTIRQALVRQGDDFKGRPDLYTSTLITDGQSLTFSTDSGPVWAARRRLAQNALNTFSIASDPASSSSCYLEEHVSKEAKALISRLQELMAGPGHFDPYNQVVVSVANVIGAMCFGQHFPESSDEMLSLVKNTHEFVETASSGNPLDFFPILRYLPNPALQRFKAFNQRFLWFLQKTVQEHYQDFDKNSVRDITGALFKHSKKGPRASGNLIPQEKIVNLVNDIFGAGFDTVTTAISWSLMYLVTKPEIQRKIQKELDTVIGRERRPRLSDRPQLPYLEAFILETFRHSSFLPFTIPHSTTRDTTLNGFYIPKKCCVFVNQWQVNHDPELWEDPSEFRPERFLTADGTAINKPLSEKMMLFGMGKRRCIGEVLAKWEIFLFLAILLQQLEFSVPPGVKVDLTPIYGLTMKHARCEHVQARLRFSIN

Another experiment has as its target Cytochrome P450 2C9 (Homo sapiens, UniProt P11712).
Experiment [8] can be described thus: Luminescence Cell-Based Dose Retest to Confirm Inhibitors of Cancer Stem Cells. [Related pubchem assays (depositor defined):AID2717, AID2721]. In kind it is functional. The settings on record: Homo sapiens.

Structures are written as SMILES. The source made the active and inactive calls. Where only a bound is given, the exact number is not on record here.

Cytochrome P450 2C9, sequence (P11712 whole entry): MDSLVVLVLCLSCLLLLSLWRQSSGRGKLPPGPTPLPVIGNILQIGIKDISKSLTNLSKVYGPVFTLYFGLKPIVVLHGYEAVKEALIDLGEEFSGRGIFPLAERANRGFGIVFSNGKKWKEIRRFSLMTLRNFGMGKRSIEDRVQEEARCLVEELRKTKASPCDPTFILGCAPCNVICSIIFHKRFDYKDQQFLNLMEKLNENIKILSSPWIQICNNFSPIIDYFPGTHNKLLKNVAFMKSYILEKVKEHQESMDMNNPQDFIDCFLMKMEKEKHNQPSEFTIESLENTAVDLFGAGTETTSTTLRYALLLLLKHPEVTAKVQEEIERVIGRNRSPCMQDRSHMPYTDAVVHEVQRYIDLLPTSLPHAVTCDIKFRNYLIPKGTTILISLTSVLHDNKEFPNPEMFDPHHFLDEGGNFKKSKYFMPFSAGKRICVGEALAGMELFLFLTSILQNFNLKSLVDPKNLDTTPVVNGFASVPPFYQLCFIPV

As usually defined, the AC50 is the concentration giving half of the maximal activity seen. On to `O=C(CN(C(=O)Cn1nnc(-c2ccc(F)cc2)n1)C1CCCC1)NC1CCCC1`, for which, in [1], the AC50 was 0.184 µM (active).

As to `COc1cc(/C=C(/C#N)c2nc(O)c3ccccc3n2)ccc1O`, the “Absolute IC50 (XBP1)” value on X-box-binding protein 1 worked out at 10 µM. The EC50 in experiment [2] is > 53 µM (inactive).

As to `COc1cc(/C=N/NC(=O)c2cccnc2)cc2c1OCO2`, the EC50 in experiment [3] is 6.16 µM (active).

With `COc1ccc2sc(-c3ccc(N(C)C)cc3)c(C#CC(C)(C)O)c2c1`, the AC50 in [1] was 2.73 µM (active).

In the case of `COc1ccc2c(c1)N(C)/C(=C/c1cccc[n+]1C)S2`, the EC50 was < 0.1 µM (active) in experiment [4], > 60 µM (not active) in [5] and 0.029 µM (active) in “cells”. The AC50 with INS1 is 1.13 µM (active).

Take `COc1cc(/C=C/c2nc(N)nc(-c3ccccc3O)n2)cc(OC)c1OC`: the EC50 in experiment [6] is 36.1 µM (active). Moreover, the “Absolute IC50 (XBP1)” value on X-box-binding protein 1 turned out to be 10 µM.

A word on the IC50: it is the concentration that inhibits the measured activity by half. In the case of `Brc1ccc2ncnc(Nc3ccc(N4CCOCC4)cc3)c2c1`, the IC50 on Bcl-2-like protein 10 is > 50 µM (inactive). The EC50 was 0.92 µM (active) in [4], 1.14 µM (active) in [3] and > 60 µM (not active) in [5].

As to `Nc1ccc(Nc2nc(-c3cccs3)cs2)cc1`, the AC50 in experiment [1] is 8.4 µM (active).

As to `CCOc1ccc(C2=C/C(=C/c3cccnc3)C(=O)O2)cc1`, at X-box-binding protein 1, the “Absolute IC50 (XBP1)” value is 10 µM.

For orientation: CC50 means the concentration giving 50% cytotoxicity. As for `CC(=O)Nc1ccc(Nc2ncc([N+](=O)[O-])c(Nc3ccc(NC(C)=O)cc3)n2)cc1`, the CC50 in experiment [7] is > 40 µM (active). The half-maximal activity concentration (AC50) at Cytochrome P450 1A2 was 22.4 µM (inconclusive); on Cytochrome P450 2C9, 0.355 µM (inconclusive).

Turning to `CCCNc1nc(Cl)nc(Nc2ccc(Cl)cc2)n1`, in experiment [3], the EC50 is 3.38 µM (active).

Take `Fc1ccccc1N1CCN(C2CCCN(Cc3cccc(C(F)(F)F)c3)C2)CC1` (centres undefined): the EC50 is < 0.1 µM (active) in experiment [4], > 60 µM (not active) in experiment [5] and 0.656 µM (active) in the experiment “cells”.

For the molecule `CN1CCC(OC(=O)c2ccc(Br)cc2)CC1`, the figures for the EC50 (in [4]; in experiment [5]; in the experiment “cells”) were < 0.1 µM (active), > 60 µM (not active) and 0.029 µM (active), respectively.

For `C=CCNCCCOc1ccc(Cl)cc1C(C)(C)C`, the CC50 in experiment [7] is 28.8 µM (active). In [8], the AC50 was 16.1 µM (active).
